# Data published in PMC10542159 (bioRxiv, 2023).
# T1: SpeG (Escherichia coli, UniProt P0A951)
# T1 sequence (P0A951 1-186): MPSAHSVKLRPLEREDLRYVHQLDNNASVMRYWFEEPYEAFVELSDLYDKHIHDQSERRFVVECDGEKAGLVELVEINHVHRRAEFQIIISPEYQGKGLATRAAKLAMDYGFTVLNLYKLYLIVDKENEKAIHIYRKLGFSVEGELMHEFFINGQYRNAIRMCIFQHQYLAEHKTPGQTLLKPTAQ
# B1: SpeG (Escherichia coli K-12) (protein)
# chain: T1 sequence (P0A951 1-186)
# Assays:
# SpeG = target: T1, SpeG; assay: continuous spectrophotometric acetyltransferase assay; assay type: biochemical
# [1] = target: T2, spermidine/spermine acetyltransferase 1 (SAT1) (Homo sapiens, UniProt P21673); assay: continuous spectrophotometric acetyltransferase assay, […] spermidine as substrate; assay type: biochemical
# PA1472 = PA1472 (Pseudomonas aeruginosa, UniProt Q9I3P0)
# [2] = target: T2, spermidine/spermine acetyltransferase 1 (SAT1)
# [3] = substrate: NCCCCNCCCN; assay: continuous spectrophotometric enzyme kinetics; assay type: biochemical, Escherichia coli; details: acetyl-CoA
# T2 sequence (P21673 whole entry): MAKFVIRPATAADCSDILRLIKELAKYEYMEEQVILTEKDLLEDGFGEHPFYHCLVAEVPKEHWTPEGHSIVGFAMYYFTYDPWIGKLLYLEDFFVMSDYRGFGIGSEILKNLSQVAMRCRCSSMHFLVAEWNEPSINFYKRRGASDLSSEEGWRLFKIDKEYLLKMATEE
# Sequence of PA1472 (Q9I3P0 1-184): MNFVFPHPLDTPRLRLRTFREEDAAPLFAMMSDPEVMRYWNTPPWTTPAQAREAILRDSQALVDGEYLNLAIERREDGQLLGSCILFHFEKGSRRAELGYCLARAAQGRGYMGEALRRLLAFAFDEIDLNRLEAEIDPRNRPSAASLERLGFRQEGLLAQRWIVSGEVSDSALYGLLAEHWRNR
molecule,measurement,setting,value
N=C(N)c1ccc(/N=N/Nc2ccc(C(=N)N)cc2)cc1 [diminazene],IC50,SpeG,26.2 ± 3.7 µM
same,IC50,[1],21 ± 0.6 µM
NCCCCN [putrescine],Km,PA1472,30.7 ± 9.9 mM
same,Km,[2],8.7 ± 2.43 mM
B1,K0.5,[3],590.1 ± 30.8 µM
